Holding throughout (assay): Competitive isoTOP-ABPP, cell lysates
What all share (assay type): binding

Assay [1] addresses GNB2L1 C182 (P63244) (Homo sapiens, UniProt P63244). The note with it: for isoTOP-ABPP reactivity ratio, P63244_C182 / isoTOP-ABPP reactivity profile ratio, P63244_C182: 500 μm.
The target in assay [2] is GSTP1 C48 (P09211) (Homo sapiens, UniProt P09211). The note with it: for isoTOP-ABPP reactivity ratio, P09211_C48 / isoTOP-ABPP reactivity profile ratio, P09211_C48: 500 μm.
Assay [3] addresses IDH1 C269 (O75874) (Homo sapiens, UniProt O75874).
Assay [4] has as its target T1, PCK2 C306 (Q16822) (Homo sapiens, UniProt Q16822).
T1 sequence (Q16822 33-640): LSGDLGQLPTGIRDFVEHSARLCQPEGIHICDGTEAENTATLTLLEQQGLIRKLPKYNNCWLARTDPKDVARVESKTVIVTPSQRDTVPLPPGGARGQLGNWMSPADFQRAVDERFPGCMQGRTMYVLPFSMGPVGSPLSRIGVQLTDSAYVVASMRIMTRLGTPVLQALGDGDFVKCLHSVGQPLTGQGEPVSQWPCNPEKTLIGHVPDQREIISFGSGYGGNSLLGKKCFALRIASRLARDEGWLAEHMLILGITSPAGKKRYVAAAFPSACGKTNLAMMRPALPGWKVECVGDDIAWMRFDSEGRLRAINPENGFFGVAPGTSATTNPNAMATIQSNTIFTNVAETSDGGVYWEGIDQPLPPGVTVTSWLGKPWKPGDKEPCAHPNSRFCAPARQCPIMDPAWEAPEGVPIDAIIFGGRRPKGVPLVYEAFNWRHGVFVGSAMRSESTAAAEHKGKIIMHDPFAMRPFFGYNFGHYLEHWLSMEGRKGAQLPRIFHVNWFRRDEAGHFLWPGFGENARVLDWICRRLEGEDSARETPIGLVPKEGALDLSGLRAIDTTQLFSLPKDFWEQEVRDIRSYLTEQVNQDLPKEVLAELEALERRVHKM
The note with it: for isoTOP-ABPP reactivity profile ratio, Q16822_C306: 500 μm.

The target of assay [5] is T2, PDIA6 C190 (Q15084) (Homo sapiens, UniProt Q15084).
T2 sequence (Q15084 20-440): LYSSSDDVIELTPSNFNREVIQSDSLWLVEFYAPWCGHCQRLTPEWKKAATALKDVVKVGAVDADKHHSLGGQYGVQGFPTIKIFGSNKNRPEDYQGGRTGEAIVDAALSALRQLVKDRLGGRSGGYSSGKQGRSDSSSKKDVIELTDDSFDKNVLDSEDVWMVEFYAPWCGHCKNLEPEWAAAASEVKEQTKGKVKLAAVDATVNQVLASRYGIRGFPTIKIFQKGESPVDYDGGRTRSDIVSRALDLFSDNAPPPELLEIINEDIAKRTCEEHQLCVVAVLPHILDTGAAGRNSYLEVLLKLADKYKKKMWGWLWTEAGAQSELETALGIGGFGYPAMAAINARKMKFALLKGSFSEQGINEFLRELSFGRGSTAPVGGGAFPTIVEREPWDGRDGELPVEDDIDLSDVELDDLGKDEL
The note with it: for isoTOP-ABPP reactivity ratio, Q15084_C190 / isoTOP-ABPP reactivity profile ratio, Q15084_C190: 500 μm.

The target in assay [6] is T3, PDIA6 C55 (Q15084) (Homo sapiens, UniProt Q15084).
T3 sequence (Q15084 20-440): T2 sequence (Q15084 20-440)

Assay [7] has as its target SAMHD1 C522 (Q9Y3Z3) (Homo sapiens, UniProt Q9Y3Z3).
For assay [8], the target named is SMARCC2 C145 (Q8TAQ2) (Homo sapiens, UniProt Q8TAQ2). The note with it: for isoTOP-ABPP reactivity ratio, Q8TAQ2_C145 / isoTOP-ABPP reactivity profile ratio, Q8TAQ2_C145: 500 μm.
Assay [9] concerns the target STAT3 C259 (P40763) (Homo sapiens, UniProt P40763).
The target of assay [10] is UBE2L3 C86 (P68036) (Homo sapiens, UniProt P68036). The note with it: for isoTOP-ABPP reactivity ratio, P68036_C86 / isoTOP-ABPP reactivity profile ratio, P68036_C86: 500 μm.
Assay [11] deals with XPO1 C528 (O14980) (Homo sapiens, UniProt O14980). The note with it: 500 μm.
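Wherever isoTOP-ABPP reactivity profile ratio, P09211 C48 is given: Heavy/light ratio DMSO over fragment-treated so higher means more cysteine engagement.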
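Wherever isoTOP-ABPP reactivity profile ratio, P63244 C182 is given: Heavy/light ratio DMSO over fragment-treated so higher means more cysteine engagement.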
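Wherever isoTOP-ABPP reactivity profile ratio, P68036 C86 is given: Heavy/light ratio DMSO over fragment-treated so higher means more cysteine engagement.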
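Wherever isoTOP-ABPP reactivity profile ratio, Q15084 C190 is given: Heavy/light ratio DMSO over fragment-treated so higher means more cysteine engagement.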

Take `COc1ccccc1OCCNC(=O)CCl` [compound 28]: the results for the “isoTOP-ABPP ratio (reactivity profile), P63244_C182” value in [1] (500 μm in-vitro ramos) and in assay [1] (500 μm in-vitro ramos_231) were 1.1 and 1.0, respectively. Moreover, the “isoTOP-ABPP ratio (reactivity profile), P09211_C48” value in assay [2] (500 μm in-vitro ramos) amounted to 1.5; in assay [2] (500 μm in-vitro ramos_231) it was 1.3. Also, the “isoTOP-ABPP ratio (reactivity profile), O75874_C269” value in assay [3] (500 μm in-vitro ramos_231) is recorded as 1.1. In addition, the “isoTOP-ABPP ratio (reactivity profile), Q16822_C306” value in assay [4] (500 μm in-vitro ramos_231) is 1.1. The results for the “isoTOP-ABPP ratio (reactivity profile), Q15084_C190” value in [5] (500 μm in-vitro ramos) and in assay [5] (500 μm in-vitro ramos_231) were 1.6 and 1.1, respectively. For the same molecule, the “isoTOP-ABPP ratio (reactivity profile), Q15084_C55” value in [6] (500 μm in-vitro ramos) was determined as 1.5; in [6] (500 μm in-vitro ramos_231), 1.1. Moreover, the “isoTOP-ABPP ratio (reactivity profile), Q9Y3Z3_C522” value in assay [7] (500 μm in-vitro ramos_231) is reported as 1.0. Also, the entries for the “isoTOP-ABPP ratio (reactivity profile), Q8TAQ2_C145” value in [8] (500 μm in-vitro ramos) and in [8] (500 μm in-vitro ramos_231) were 1.2 and 1.1, respectively. In addition, the “isoTOP-ABPP ratio (reactivity profile), P40763_C259” value in [9] (500 μm in-vitro ramos) stood at 1.1; in [9] (500 μm in-vitro ramos_231), 1.0. Moreover, the “isoTOP-ABPP ratio (reactivity profile), P68036_C86” value in assay [10] (500 μm in-vitro ramos_231) is 1.4.
Consider `C=CC(=O)Nc1cc(C)c(Br)cc1C` [compound 40], for which the “isoTOP-ABPP reactivity ratio, P63244_C182” value is 0.6 in assay [1] (in-vitro_ramos) and 1.0 in [1] (in-vitro_ramos_231). The “isoTOP-ABPP reactivity ratio, P09211_C48” value in [2] (in-vitro_ramos) and in assay [2] (in-vitro_ramos_231) was 1.6 throughout. Further, the “isoTOP-ABPP reactivity ratio, O75874_C269” value in assay [3] (500 μm, in-vitro_ramos) was 0.8. In addition, the “isoTOP-ABPP reactivity ratio, Q15084_C190” value in [5] (in-vitro_ramos) was 1.7; in assay [5] (in-vitro_ramos_231), 0.9. In addition, in [6] (500 μm, in-vitro_ramos_231), the “isoTOP-ABPP reactivity ratio, Q15084_C55” value worked out at 0.8. The “isoTOP-ABPP reactivity ratio, Q9Y3Z3_C522” value in assay [7] (500 μm, in-vitro_ramos_231) is on record as 0.8. Also, the “isoTOP-ABPP reactivity ratio, Q8TAQ2_C145” value in assay [8] (in-vitro_ramos) was found to be 1.1; in [8] (in-vitro_ramos_231), 0.9. Moreover, the “isoTOP-ABPP reactivity ratio, P40763_C259” value in assay [9] (500 μm, in-vitro_ramos) was 1.4. Further, the “isoTOP-ABPP reactivity ratio, P68036_C86” value came to 0.9 in [10] (in-vitro_ramos) and 0.8 in [10] (in-vitro_ramos_231).
Consider `O=C(CCl)Nc1ccc(-c2ccccc2)cc1` [compound 52], for which the “isoTOP-ABPP reactivity profile ratio, P63244_C182” value in assay [1] (in-vitro_ramos_231) amounted to 1.0. The “isoTOP-ABPP reactivity profile ratio, P09211_C48” value in assay [2] (in-vitro_ramos) stood at 1.9; in assay [2] (in-vitro_ramos_231), 1.0. For the same molecule, the “isoTOP-ABPP reactivity profile ratio, Q16822_C306” value stood at 1.6 in [4] (in-vitro_ramos) and 1.3 in assay [4] (in-vitro_ramos_231). Also, the “isoTOP-ABPP reactivity profile ratio, Q15084_C190” value in assay [5] (in-vitro_ramos) is recorded as 1.9; in assay [5] (in-vitro_ramos_231), 1.0. Further, the “isoTOP-ABPP reactivity profile ratio, Q15084_C55” value in assay [6] (500 μm, in-vitro_ramos) was 1.8; in [6] (500 μm, in-vitro_ramos_231) it was 1.1. The “isoTOP-ABPP reactivity profile ratio, Q9Y3Z3_C522” value in assay [7] (500 μm, in-vitro_ramos_231) is 1.2. The entries for the “isoTOP-ABPP reactivity profile ratio, Q8TAQ2_C145” value in assay [8] (in-vitro_ramos) and in [8] (in-vitro_ramos_231) were 1.8 and 0.9, respectively. Also, in [9] (500 μm, in-vitro_ramos_231), the “isoTOP-ABPP reactivity profile ratio, P40763_C259” value turned out to be 2.2. Moreover, the “isoTOP-ABPP reactivity profile ratio, P68036_C86” value in [10] (in-vitro_ramos) was 1.3; in assay [10] (in-vitro_ramos_231) it was 0.8. Moreover, in assay [11] (in-vitro_ramos_231), the “isoTOP-ABPP reactivity profile ratio, O14980_C528” value was 1.3.
With `C=CC(=O)N1CCC(Cc2ccccc2)CC1` [compound 53], the “isoTOP-ABPP reactivity profile ratio, P63244_C182” value turned out to be 0.8 in assay [1] (in-vitro_ramos) and 0.9 in [1] (in-vitro_ramos_231). Also, the figures for the “isoTOP-ABPP reactivity profile ratio, P09211_C48” value in assay [2] (in-vitro_ramos) and in [2] (in-vitro_ramos_231) were 1.2 and 2.3, respectively. Further, in assay [4] (in-vitro_ramos_231), the “isoTOP-ABPP reactivity profile ratio, Q16822_C306” value was found to be 1.3. The “isoTOP-ABPP reactivity profile ratio, Q15084_C190” value in [5] (in-vitro_ramos) and in assay [5] (in-vitro_ramos_231) was 1.0 throughout. Moreover, the “isoTOP-ABPP reactivity profile ratio, Q15084_C55” value in assay [6] (500 μm, in-vitro_ramos) came to 1.0; in assay [6] (500 μm, in-vitro_ramos_231), 0.9. Moreover, the “isoTOP-ABPP reactivity profile ratio, Q9Y3Z3_C522” value in [7] (500 μm, in-vitro_ramos) is on record as 0.7. Further, the “isoTOP-ABPP reactivity profile ratio, Q8TAQ2_C145” value in [8] (in-vitro_ramos) came out at 1.2. In addition, the “isoTOP-ABPP reactivity profile ratio, P40763_C259” value in [9] (500 μm, in-vitro_ramos) was 1.9. The “isoTOP-ABPP reactivity profile ratio, P68036_C86” value in [10] (in-vitro_ramos) and in assay [10] (in-vitro_ramos_231) was 1.0 each time. The “isoTOP-ABPP reactivity profile ratio, O14980_C528” value in assay [11] (in-vitro_ramos) is recorded as 0.8.

The record behind these values is patent publication US10670605B2, “Cysteine reactive probes and uses thereof” (The Scripps Research Institute, priority 2015, dated 2020).
